Measured values from article PMC2759687 (Journal of medicinal chemistry, 2009).
Square brackets hold non-standard residues; d marks the D form. Peptide text beside a SMILES is read from it. Orn = NCCC[C@H](N)C(=O)O

Key:
Experiment in all cases: Mean activity
Assay type in all cases: cell-based
fungi = details: geometric mean of MIC values (after 24 h) against 2 fungal strains
Gram-negative bacteria = details: geometric mean of MIC values (after 24 h) against 7 Gram-negative strains
Gram-positive bacteria = details: geometric mean of MIC values (after 24 h) against 7 Gram-positive strains

SMILES: CC(C)C[C@@H]1NC(=O)[C@H](CCCN)NC(=O)[C@H](C(C)C)NC(=O)[C@@H]2CCCN2C(=O)[C@@H](Cc2ccccc2)NC(=O)[C@H](CC(C)C)NC(=O)[C@H](CCCN)NC(=O)[C@H](C(C)C)NC(=O)[C@@H]2CCCN2C(=O)[C@@H](Cc2ccccc2)NC1=O [GS, gramicidin S] (cyclo(V[Orn]L[dF]PV[Orn]L[dF]P))
- Mean activity, fungi (fungi): 2.8 µg/mL
- Mean Activity, Gram-negative bacteria (Gram-negative bacteria): 23.8 µg/mL
- Mean activity, Gram-positive bacteria (Gram-positive bacteria): 1.4 µg/mL
